ChEMBL document CHEMBL1201862, “PubChem BioAssay data set” (2004)
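Compound exposure: 48 hours, 5 concentrations, 96-well plates. GI50 = concentration required for 50% inhibition of growth.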 Activity calls are given as the source filed them. No stated cut-off is given here; in the data, active = GI50 up to about 1.1 µM and inactive = higher.

Tests used:
Experiment in all cases: inhibition of tumour cell growth, NCI panel, 48 h
[1] = system: SNB-78
[2] = system: MOLT-4
[3] = system: SF-295
[4] = system: EKVX
[5] = system: KM12
[6] = system: OVCAR-5
[7] = system: U-251
[8] = system: UO-31
[9] = system: NCI-H226
[10] = system: HOP-18
[11] = system: SK-MEL-28
[12] = system: A549
[13] = system: SK-OV-3
[14] = system: CCRF-CEM
[15] = system: DMS-273
[16] = system: M19-MEL
[17] = system: DMS-114
[18] = system: A498
[19] = system: HCT-116
[20] = system: SK-MEL-2
[21] = system: HL-60
[22] = system: LXFL 529
[23] = system: OVCAR-8
[24] = system: SK-MEL-5
[25] = system: RPMI-8226
[26] = system: XF498
[27] = system: UACC-62
[28] = system: COLO 205
[29] = system: LOX IMVI
[30] = system: SN12C
[31] = system: OVCAR-4
[32] = system: SNB-75
[33] = system: HCT-15
[34] = system: HT-29
[35] = system: UACC-257
[36] = system: SNB-19
[37] = system: IGROV-1
[38] = system: Malme-3M
[39] = system: NCI-H23
[40] = system: ACHN
[41] = system: M14
[42] = system: TK-10
[43] = system: 786-0
[44] = system: KM-20L2
[45] = system: HCC 2998
[46] = system: HOP-92
[47] = system: SR
[48] = system: CAKI-1
[49] = system: SW-620
[50] = system: K562
[51] = system: RXF 393
[52] = system: NCI-H460
[53] = system: SF-268
[54] = system: NCI-H522

For `O=C(Nc1cccc(O)c1)C(=O)C(C(=O)c1ccc(Cl)c(Cl)c1)C1OC(=O)c2ccccc21` (centres undefined), the GI50 [1] was 7.08 µM (inactive), the GI50 [2] was 5.01 µM (inactive) and the GI50 [3] was 20.3 µM (inactive). The GI50 [4] was 18.5 µM (inactive), the GI50 [5] was 19.5 µM (inactive) and the GI50 [6] was 22 µM (inactive). The GI50 [7] was 8.02 µM (inactive), the GI50 [8] was 13.7 µM (inactive) and the GI50 [9] was 3.46 µM (inactive). The GI50 [10] was 25.5 µM (inactive), the GI50 [11] was 21.6 µM (inactive) and the GI50 [12] was 37 µM (inactive). The GI50 [13] was 12.8 µM (inactive), the GI50 [14] was 12.5 µM (inactive) and the GI50 [15] was 10.1 µM (inactive). The GI50 [16] was 12.4 µM (inactive), the GI50 [17] was 12.1 µM (inactive) and the GI50 [18] was 19.5 µM (inactive). The GI50 [19] was 25.7 µM (inactive), the GI50 [20] was 17.5 µM (inactive) and the GI50 [21] was 12.9 µM (inactive). For the same molecule, the GI50 [22] was 12.2 µM (inactive), the GI50 [23] was 10.7 µM (inactive) and the GI50 [24] was 19.7 µM (inactive). For the same molecule, the GI50 [25] was 16 µM (inactive), the GI50 [26] was 10.9 µM (inactive) and the GI50 [27] was 17.5 µM (inactive). The GI50 [28] was 15.9 µM (inactive), the GI50 [29] was 17.3 µM (inactive) and the GI50 [30] was 18.6 µM (inactive). The GI50 [31] was 13.3 µM (inactive), the GI50 [32] was 17.8 µM (inactive) and the GI50 [33] was 15.5 µM. For the same molecule, the GI50 [34] was 27.4 µM (inactive), the GI50 [35] was 20.6 µM (inactive) and the GI50 [36] was 13.3 µM (inactive). For the same molecule, the GI50 [37] was 22.2 µM (inactive), the GI50 [38] was 14.4 µM (inactive) and the GI50 [39] was 16.6 µM (inactive). The GI50 [40] was 14.6 µM (inactive), the GI50 [41] was 20.2 µM (inactive) and the GI50 [42] was 23.8 µM (inactive). For the same molecule, the GI50 [43] was 13.6 µM (inactive), the GI50 [44] was 18.8 µM (inactive) and the GI50 [45] was 15.5 µM (inactive). The GI50 [46] was 22.5 µM (inactive), the GI50 [47] was 4.44 µM (inactive) and the GI50 [48] was 27.2 µM (inactive). For the same molecule, the GI50 [49] was 14.4 µM (inactive), the GI50 [50] was 15 µM (inactive) and the GI50 [51] was 20.9 µM (inactive). The GI50 [52] was 13.2 µM (inactive), the GI50 [53] was 10.4 µM (inactive) and the GI50 [54] was 9.82 µM (inactive).
